Experimental data reported in ChEMBL document CHEMBL3875146, “Mycobacterium Tuberculosis (MTB) GyrB inhibitors: An attractive approach for developing novel drugs against TB” (Eur J Med Chem, 2016).
Converted amounts (≈) assume the structure as drawn.

What was measured:
[1] = target: DNA gyrase subunit A/DNA gyrase subunit B (Mycobacterium tuberculosis (strain ATCC 25618 / H37Rv), UniProt P9WG45+P9WG47); assay: Inhibition of Mycobacterium tuberculosis DNA gyrase assessed as inhibition of DNA supercoiling activity using relaxed pBR322 as substrate incubated for 30 mins by ethidium bromide staining based agarose gel electrophoresis
[2] = Cytotoxicity against mouse RAW264.7 cells assessed as inhibition of cell viability at 100 uM measured after 72 hrs by MTT assay relative to control; assay type: toxicity; conditions: read-out: INH
[3] = test system: Mycobacterium tuberculosis; assay: Antimycobacterial activity against Mycobacterium tuberculosis incubated for 7 days by alamar blue assay; assay type: functional; conditions: 168 h
[4] = Cytotoxicity against mouse RAW264.7 cells assessed as inhibition of cell viability at 100 uM measured after 48 hrs by MTT assay relative to control; assay type: toxicity; conditions: read-out: INH
[5] = target: DNA gyrase subunit B (Mycobacterium smegmatis, UniProt P0C559); assay: Inhibition of Mycobacterium smegmatis DNA gyrase B expressed in BL21(DE3)pLysS cells assessed as inhibition of […] activity in presence of ATP measured after 30 mins by malachite green dye based assay; assay type: cell-based, Mycolicibacterium smegmatis
Chain of DNA gyrase subunit B (P0C559 whole entry): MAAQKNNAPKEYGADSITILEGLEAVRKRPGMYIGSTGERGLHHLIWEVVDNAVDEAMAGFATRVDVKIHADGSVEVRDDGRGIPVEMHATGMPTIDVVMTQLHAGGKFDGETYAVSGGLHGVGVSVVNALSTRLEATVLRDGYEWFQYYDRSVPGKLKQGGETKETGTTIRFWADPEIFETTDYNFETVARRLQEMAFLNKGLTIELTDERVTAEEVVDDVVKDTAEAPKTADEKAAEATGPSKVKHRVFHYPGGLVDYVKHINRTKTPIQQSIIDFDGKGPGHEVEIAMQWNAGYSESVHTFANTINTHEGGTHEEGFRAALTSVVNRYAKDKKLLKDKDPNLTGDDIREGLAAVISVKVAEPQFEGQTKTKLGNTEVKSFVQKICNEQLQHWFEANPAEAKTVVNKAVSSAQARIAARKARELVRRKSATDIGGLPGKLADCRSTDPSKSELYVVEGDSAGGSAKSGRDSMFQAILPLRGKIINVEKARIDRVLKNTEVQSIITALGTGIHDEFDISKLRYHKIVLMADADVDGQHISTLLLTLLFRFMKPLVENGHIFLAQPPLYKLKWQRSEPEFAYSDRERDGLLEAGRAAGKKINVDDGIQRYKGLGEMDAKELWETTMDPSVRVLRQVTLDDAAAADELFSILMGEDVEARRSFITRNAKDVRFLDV

Chain of DNA gyrase subunit A/DNA gyrase subunit B (P9WG45 whole entry): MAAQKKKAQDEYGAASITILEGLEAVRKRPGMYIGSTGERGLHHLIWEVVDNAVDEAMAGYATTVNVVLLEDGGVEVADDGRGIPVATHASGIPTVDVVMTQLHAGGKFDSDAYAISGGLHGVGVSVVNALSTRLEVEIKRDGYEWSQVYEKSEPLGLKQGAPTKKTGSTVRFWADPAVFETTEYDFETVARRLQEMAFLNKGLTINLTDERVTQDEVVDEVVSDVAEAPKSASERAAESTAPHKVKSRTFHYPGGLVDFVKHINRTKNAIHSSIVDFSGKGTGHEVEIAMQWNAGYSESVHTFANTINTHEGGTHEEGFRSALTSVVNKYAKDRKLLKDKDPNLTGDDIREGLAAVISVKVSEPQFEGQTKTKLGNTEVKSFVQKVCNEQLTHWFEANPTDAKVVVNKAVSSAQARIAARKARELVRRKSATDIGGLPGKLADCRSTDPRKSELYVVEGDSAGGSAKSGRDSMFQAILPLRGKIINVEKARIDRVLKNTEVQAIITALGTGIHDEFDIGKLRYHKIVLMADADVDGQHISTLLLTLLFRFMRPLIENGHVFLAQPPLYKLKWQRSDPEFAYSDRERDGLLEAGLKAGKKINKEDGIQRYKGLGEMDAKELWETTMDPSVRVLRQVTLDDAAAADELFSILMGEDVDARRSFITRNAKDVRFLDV
Chain of DNA gyrase subunit A/DNA gyrase subunit B (P9WG47 whole entry): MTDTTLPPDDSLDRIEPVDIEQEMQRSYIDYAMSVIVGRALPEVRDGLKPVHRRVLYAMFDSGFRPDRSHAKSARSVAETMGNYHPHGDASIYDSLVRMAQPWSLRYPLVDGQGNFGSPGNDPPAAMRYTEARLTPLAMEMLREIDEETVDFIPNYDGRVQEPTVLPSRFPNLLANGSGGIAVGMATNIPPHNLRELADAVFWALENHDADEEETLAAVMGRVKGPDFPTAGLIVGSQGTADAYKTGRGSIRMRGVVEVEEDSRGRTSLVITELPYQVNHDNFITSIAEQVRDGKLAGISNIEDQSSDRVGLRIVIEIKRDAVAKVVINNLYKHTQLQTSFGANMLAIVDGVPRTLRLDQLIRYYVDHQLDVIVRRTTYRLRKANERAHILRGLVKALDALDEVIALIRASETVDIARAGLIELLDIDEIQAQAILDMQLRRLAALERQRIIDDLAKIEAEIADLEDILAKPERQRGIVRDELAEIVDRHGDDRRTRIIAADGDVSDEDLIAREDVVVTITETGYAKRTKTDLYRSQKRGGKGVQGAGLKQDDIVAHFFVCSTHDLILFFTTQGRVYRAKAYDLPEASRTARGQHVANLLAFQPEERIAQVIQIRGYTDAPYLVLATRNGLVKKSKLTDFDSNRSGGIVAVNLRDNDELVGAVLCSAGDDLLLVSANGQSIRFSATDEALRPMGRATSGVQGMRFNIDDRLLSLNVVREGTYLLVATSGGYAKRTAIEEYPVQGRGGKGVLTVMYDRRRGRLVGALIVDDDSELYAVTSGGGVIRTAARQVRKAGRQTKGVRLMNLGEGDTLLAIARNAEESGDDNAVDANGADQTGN

Row | SMILES | IC50 [1] [µM] | cytotoxicity at 72 h, 100 µM [2] [%] | MIC [3] [µM] | cytotoxicity at 48 h, 100 µM [4] [%] | IC50 [5] [µM]
1 | COc1ccc2c(c1)C(=O)C(=O)N2CCN1CCN(NCc2ccc([N+](=O)[O-])o2)CC1 | > 50 | 31.6 |  |  | 
2 | O=c1nc(N2CCN(Cc3ccc(Cl)cc3)CC2)sc2ccc(C(F)(F)F)cc12 | 3.86 |  | 6.31 (≈ 2.78 µg/mL) | 8.45 | 
3 | O=c1nc(N2CCN(C(=S)Nc3ccc(Cl)cc3)CC2)sc2ccc(Cl)cc12 | 6.86 |  | 6.92 (≈ 3.12 µg/mL) | 25.6 | 
4 | Cc1ccc2c(c1)C(=O)C(=O)N2CCN1CCN(NCc2ccccc2C(F)(F)F)CC1 | > 50 | 13.6 |  |  | 
5 | Cc1ccc2c(c1)C(=O)C(=O)N2CCN1CCN(NCc2cccc(Cl)c2Cl)CC1 | 43.1 | 27.8 |  |  | 53.6
6 | Cc1ccc(CN2CCN(c3nc(=O)c4cc([N+](=O)[O-])ccc4s3)CC2)cc1 | 8.93 |  | 15.8 (≈ 6.25 µg/mL) | 26.5 | 
7 | O=c1nc(N2CCN(C(=S)Nc3ccccc3)CC2)sc2ccc([N+](=O)[O-])cc12 | 0.77 |  | 1.82 (≈ 0.778 µg/mL) | 3.25 | 
8 | O=C1C(=O)N(CCN2CCN(NCc3cccc(Cl)c3Cl)CC2)c2ccc(F)cc21 | > 50 | 31.2 |  |  | 
9 | O=c1nc(N2CCN(Cc3ccc([N+](=O)[O-])cc3)CC2)sc2ccc(C(F)(F)F)cc12 | 4.55 |  | 5.19 (≈ 2.34 µg/mL) | 14.6 | 
10 | Cc1ccc(NC(=O)N2CCN(c3nc(=O)c4cc(C(F)(F)F)ccc4s3)CC2)cc1 | 5.26 |  | 11.5 (≈ 5.18 µg/mL) | 7.56 | 
11 | Cc1ccc2c(c1)C(=O)C(=O)N2CCN1CCN(NCc2ccccc2OCc2ccccc2)CC1 | 10 | 34.6 |  |  | 28.3
12 | O=C(Nc1ccc([N+](=O)[O-])cc1)N1CCN(c2nc(=O)c3cc(Cl)ccc3s2)CC1 | 4.61 |  | 5.24 (≈ 2.34 µg/mL) | 3.56 | 
13 | O=C(Nc1ccc(Cl)cc1)N1CCN(c2nc(=O)c3cc(C(F)(F)F)ccc3s2)CC1 | 10.5 |  | 13.3 (≈ 6.25 µg/mL) | 10.2 | 
14 | COc1ccc2c(c1)C(=O)C(=O)N2CCN1CCN(NCc2ccccc2)CC1 | 48.2 | 21.6 |  |  | 92
15 | O=C(Nc1ccccc1)N1CCN(c2nc(=O)c3cc(Cl)ccc3s2)CC1 | 17.5 |  | 15.6 (≈ 6.25 µg/mL) | 16.5 | 
16 | O=C1C(=O)N(CCN2CCN(NCc3ccccc3C(F)(F)F)CC2)c2ccc(F)cc21 | 3.6 | 20.6 |  |  | 10.6
17 | O=C1C(=O)N(CCN2CCN(NCc3ccccc3)CC2)c2ccc(Cl)cc21 | > 50 | 22.3 |  |  | 
18 | Cc1ccc(CN2CCN(c3nc(=O)c4cc(C(F)(F)F)ccc4s3)CC2)cc1 | 11.6 |  | 16.7 (≈ 7.02 µg/mL) | 18.6 | 
19 | COc1ccccc1CNN1CCN(CCN2C(=O)C(=O)c3cc(C)ccc32)CC1 | 5 | 9.42 |  |  | 14.1
20 | O=c1nc(N2CCN(C(=S)Nc3ccc(Cl)cc3)CC2)sc2ccc(C(F)(F)F)cc12 | 4.23 |  | 8.59 (≈ 4.17 µg/mL) | 3.15 | 
21 | O=C(Nc1ccc([N+](=O)[O-])cc1)N1CCN(c2nc(=O)c3cc(C(F)(F)F)ccc3s2)CC1 | 26.5 |  | 52.1 (≈ 25 µg/mL) |  | 

Row | SMILES | IC50 [1] [µM] | cytotoxicity at 72 h, 100 µM [2] [%] | MIC [3] [µM] | cytotoxicity at 48 h, 100 µM [4] [%] | IC50 [5] [µM]
22 | O=c1nc(N2CCN(Cc3ccc(Cl)cc3)CC2)sc2ccc(Cl)cc12 | 12.1 |  | 15.4 (≈ 6.25 µg/mL) | 5.36 | 
23 | O=C1C(=O)N(CCN2CCN(NCc3ccccc3F)CC2)c2ccc(Cl)cc21 | > 50 | 17.6 |  |  | 
24 | COc1ccc2c(c1)C(=O)C(=O)N2CCN1CCN(NCc2ccccc2OCc2ccccc2)CC1 | 36.5 | 16.3 |  |  | 69.7
25 | O=c1nc(N2CCN(C(=S)Nc3ccc([N+](=O)[O-])cc3)CC2)sc2ccc(Cl)cc12 | 6.23 |  | 13.5 (≈ 6.25 µg/mL) | 1.45 | 
26 | Cc1ccc(NC(=O)N2CCN(c3nc(=O)c4cc([N+](=O)[O-])ccc4s3)CC2)cc1 | 9.62 |  | 14.7 (≈ 6.25 µg/mL) | 16.2 | 
27 | O=C1C(=O)N(CCN2CCN(NCc3ccccc3OCc3ccccc3)CC2)c2ccc(Cl)cc21 | 3.8 | 26.8 |  |  | 13.8
28 | O=c1nc(N2CCN(Cc3ccccc3)CC2)sc2ccc(C(F)(F)F)cc12 | 11.5 |  | 15.4 (≈ 6.25 µg/mL) |  | 
29 | O=C1C(=O)N(CCN2CCN(NCc3ccccc3C(F)(F)F)CC2)c2ccc(Cl)cc21 | 4.9 | 16.4 |  |  | 22.1
30 | O=c1nc(N2CCN(C(=S)Nc3ccccc3)CC2)sc2ccc(Cl)cc12 | 10.9 |  | 11.2 (≈ 4.68 µg/mL) | 2.35 | 
31 | COc1ccc2c(c1)C(=O)C(=O)N2CCN1CCN(NCc2ccc(Cl)cc2Cl)CC1 | 4.1 | 26.4 |  |  | 15.8
32 | O=c1nc(N2CCN(Cc3ccc([N+](=O)[O-])cc3)CC2)sc2ccc(Cl)cc12 | 7.33 |  | 15 (≈ 6.25 µg/mL) | 5.48 | 
33 | Cc1ccc(NC(=S)N2CCN(c3nc(=O)c4cc(C(F)(F)F)ccc4s3)CC2)cc1 | 4.51 |  | 9.54 (≈ 4.43 µg/mL) | 16.4 | 
34 | O=C1C(=O)N(CCN2CCN(NCc3ccccc3OCc3ccccc3)CC2)c2ccccc21 | 10 | 13.9 |  |  | 26.6
35 | COc1ccc2c(c1)C(=O)C(=O)N2CCN1CCN(NCc2cccc(Cl)c2Cl)CC1 | 48.6 | 23.9 |  |  | 73
36 | O=C1C(=O)N(CCN2CCN(NCc3ccc([N+](=O)[O-])o3)CC2)c2ccc(F)cc21 | > 50 | 37.8 |  |  | 
37 | Cc1ccc(CN2CCN(c3nc(=O)c4cc(Cl)ccc4s3)CC2)cc1 | 21.5 |  | 24.2 (≈ 9.36 µg/mL) | 2.36 | 
38 | Cc1ccc(NC(=O)N2CCN(c3nc(=O)c4cc(Cl)ccc4s3)CC2)cc1 | 2.62 |  | 6.02 (≈ 2.5 µg/mL) | 5.14 | 
39 | O=C1C(=O)N(CCN2CCN(NCc3ccccc3)CC2)c2ccccc21 | > 50 | 7.6 |  |  | 
40 | O=C(Nc1ccc([N+](=O)[O-])cc1)N1CCN(c2nc(=O)c3cc([N+](=O)[O-])ccc3s2)CC1 | 9.11 |  | 13.7 (≈ 6.24 µg/mL) | 15.2 | 
41 | COc1ccc2c(c1)C(=O)C(=O)N2CCN1CCN(NCc2ccccc2F)CC1 | > 50 | 16.3 |  |  | 
42 | Cc1ccc2c(c1)C(=O)C(=O)N2CCN1CCN(NCc2ccccc2)CC1 | > 50 | 19.7 |  |  | 

Row | SMILES | IC50 [1] [µM] | cytotoxicity at 72 h, 100 µM [2] [%] | MIC [3] [µM] | cytotoxicity at 48 h, 100 µM [4] [%] | IC50 [5] [µM]
43 | Cc1ccc(NC(=S)N2CCN(c3nc(=O)c4cc(Cl)ccc4s3)CC2)cc1 | 11.6 |  | 14.5 (≈ 6.25 µg/mL) | 2.48 | 
44 | Cc1ccc2c(c1)C(=O)C(=O)N2CCN1CCN(NCc2ccc([N+](=O)[O-])o2)CC1 | > 50 | 27.8 |  |  | 
45 | O=c1nc(N2CCN(Cc3ccc(Cl)cc3)CC2)sc2ccc([N+](=O)[O-])cc12 | 3.68 |  | 5.99 (≈ 2.5 µg/mL) | 1.56 | 
46 | O=c1nc(N2CCN(C(=S)Nc3ccc([N+](=O)[O-])cc3)CC2)sc2ccc(C(F)(F)F)cc12 | 2.16 |  | 5.04 (≈ 2.5 µg/mL) | 5.48 | 
47 | CO[C@@H]1[C@@H](OC(N)=O)[C@@H](O)[C@H](Oc2ccc3c(O)c(NC(=O)c4ccc(O)c(CC=C(C)C)c4)c(=O)oc3c2C)OC1(C)C [NOVOBIOCIN] |  |  | > 200 | 7.56 | 
48 | O=c1nc(N2CCN(Cc3ccccc3)CC2)sc2ccc([N+](=O)[O-])cc12 | 3.21 |  | 4.08 (≈ 1.56 µg/mL) | 5.41 | 
49 | O=C(Nc1ccc(Cl)cc1)N1CCN(c2nc(=O)c3cc([N+](=O)[O-])ccc3s2)CC1 | 23.7 |  | 28 (≈ 12.5 µg/mL) |  | 
50 | O=C(Nc1ccccc1)N1CCN(c2nc(=O)c3cc([N+](=O)[O-])ccc3s2)CC1 | 16.8 |  | 30.4 (≈ 12.5 µg/mL) |  | 
51 | O=C(Nc1ccc(Cl)cc1)N1CCN(c2nc(=O)c3cc(Cl)ccc3s2)CC1 | 10.5 |  | 17.9 (≈ 7.8 µg/mL) | 2.56 | 
52 | COc1ccccc1CNN1CCN(CCN2C(=O)C(=O)c3ccccc32)CC1 | > 50 | 21.3 |  |  | 
53 | O=C(Nc1ccccc1)N1CCN(c2nc(=O)c3cc(C(F)(F)F)ccc3s2)CC1 | 11 |  | 19.2 (≈ 8.33 µg/mL) |  | 
54 | Cc1ccc(NC(=S)N2CCN(c3nc(=O)c4cc([N+](=O)[O-])ccc4s3)CC2)cc1 | 0.82 |  | 2.83 (≈ 1.25 µg/mL) | 4.22 | 
55 | O=C1C(=O)N(CCN2CCN(NCc3ccccc3)CC2)c2ccc(F)cc21 | > 50 | 29.3 |  |  | 
56 | COc1ccccc1CNN1CCN(CCN2C(=O)C(=O)c3cc(F)ccc32)CC1 | > 50 | 19.1 |  |  | 
57 | O=c1nc(N2CCN(C(=S)Nc3ccc([N+](=O)[O-])cc3)CC2)sc2ccc([N+](=O)[O-])cc12 | 2.59 |  | 5.29 (≈ 2.5 µg/mL) | 2.21 | 
58 | O=c1nc(N2CCN(C(=S)Nc3ccccc3)CC2)sc2ccc(C(F)(F)F)cc12 | 0.83 |  | 4.62 (≈ 2.08 µg/mL) | 6.48 | 
59 | O=c1nc(N2CCN(Cc3ccccc3)CC2)sc2ccc(Cl)cc12 | 17.6 |  | 33.6 (≈ 12.5 µg/mL) |  | 
60 | O=c1nc(N2CCN(C(=S)Nc3ccc(Cl)cc3)CC2)sc2ccc([N+](=O)[O-])cc12 | 0.51 |  | 4.41 (≈ 2.04 µg/mL) | 1.81 | 
61 | O=c1nc(N2CCN(Cc3ccc([N+](=O)[O-])cc3)CC2)sc2ccc([N+](=O)[O-])cc12 | 4.21 |  | 7.31 (≈ 3.12 µg/mL) | 21.4 | 
